Test results taken from patent publication US6608086B2, “Dihydropyridines and new uses thereof” (Synaptic Pharmaceutical Corporation, priority 1993, dated 2003).
Where a name gives a salt, the structure may show the parent alone. Read-outs that look alike come from different tables or passages of the source.

Legend:
[1] = molecular target: T1, α2C receptor (Homo sapiens, UniProt P18825); assay: Competition binding, [3H]rauwolscine, human α2C receptor
T1 construct: host or cells: LM(tk-) cells, line L-α2C
T1 sequence (P18825 1-462): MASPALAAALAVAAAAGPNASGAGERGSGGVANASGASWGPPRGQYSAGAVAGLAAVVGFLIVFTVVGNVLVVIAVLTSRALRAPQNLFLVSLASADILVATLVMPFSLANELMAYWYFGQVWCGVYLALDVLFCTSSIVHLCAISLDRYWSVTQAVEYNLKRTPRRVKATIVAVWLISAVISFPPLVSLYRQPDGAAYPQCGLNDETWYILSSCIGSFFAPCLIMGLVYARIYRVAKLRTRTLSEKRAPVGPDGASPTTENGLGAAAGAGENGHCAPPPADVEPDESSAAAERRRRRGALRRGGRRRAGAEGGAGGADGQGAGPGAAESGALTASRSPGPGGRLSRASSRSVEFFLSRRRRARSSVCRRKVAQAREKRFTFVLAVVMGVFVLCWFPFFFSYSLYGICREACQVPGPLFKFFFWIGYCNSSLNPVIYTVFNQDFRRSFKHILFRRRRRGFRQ
Outline: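 Filter-bound [3H]rauwolscine (0.5 nM) was measured after equilibrium competition with test antagonists on lysates of LM(tk−) cells stably transfected with each human α2 subtype. Buffer: 25 mM glycylglycine, pH 7.6 at room temperature; 10 μM phentolamine gave nonspecific binding.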

[2] = molecular target: T2, α1C Human Adrenergic Receptor (Homo sapiens, UniProt P35348); assay: Radioligand binding, [3H]prazosin, cloned human α1C adrenergic receptor; settings: cloned human receptor in LM(tk-) cell membranes, SEM and n in lines below
T2 construct: The entire coding region of α1C (1401 bp); expressed in transfected cells
T2 sequence (P35348 1-466): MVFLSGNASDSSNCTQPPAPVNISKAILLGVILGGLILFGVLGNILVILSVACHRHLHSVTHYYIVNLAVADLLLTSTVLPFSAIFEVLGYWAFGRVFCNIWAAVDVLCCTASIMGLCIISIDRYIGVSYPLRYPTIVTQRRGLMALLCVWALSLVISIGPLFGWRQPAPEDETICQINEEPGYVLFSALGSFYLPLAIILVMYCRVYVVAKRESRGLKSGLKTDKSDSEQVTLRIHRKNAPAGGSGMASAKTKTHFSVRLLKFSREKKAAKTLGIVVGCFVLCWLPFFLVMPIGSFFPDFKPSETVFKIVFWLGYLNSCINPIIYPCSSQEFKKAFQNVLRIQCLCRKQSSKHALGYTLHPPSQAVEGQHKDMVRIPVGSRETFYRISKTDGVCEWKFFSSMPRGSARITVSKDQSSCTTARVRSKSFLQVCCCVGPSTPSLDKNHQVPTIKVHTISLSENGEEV
Outline: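 LM(tk−) membranes (stable human α1C); [3H]prazosin 0.5 nM; 37° C., 20 min; Tris-HCl 50 mM/MgCl2 1 mM/ascorbate 0.1%, pH 7.5; NSB 10 μM phentolamine; GF/B filtration.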

[3] = molecular target: T3, L-type calcium channel (Rattus norvegicus, UniProt P22002); assay: Competition binding of [3H]nitrendipine to membrane fragments of rat cardiac muscle
T3 construct: membrane fragments of rat cardiac muscle; from tissue; host or cells: rat cardiac muscle membranes
T3 sequence (P22002 whole entry, other chains not shown, the tested form may be a part): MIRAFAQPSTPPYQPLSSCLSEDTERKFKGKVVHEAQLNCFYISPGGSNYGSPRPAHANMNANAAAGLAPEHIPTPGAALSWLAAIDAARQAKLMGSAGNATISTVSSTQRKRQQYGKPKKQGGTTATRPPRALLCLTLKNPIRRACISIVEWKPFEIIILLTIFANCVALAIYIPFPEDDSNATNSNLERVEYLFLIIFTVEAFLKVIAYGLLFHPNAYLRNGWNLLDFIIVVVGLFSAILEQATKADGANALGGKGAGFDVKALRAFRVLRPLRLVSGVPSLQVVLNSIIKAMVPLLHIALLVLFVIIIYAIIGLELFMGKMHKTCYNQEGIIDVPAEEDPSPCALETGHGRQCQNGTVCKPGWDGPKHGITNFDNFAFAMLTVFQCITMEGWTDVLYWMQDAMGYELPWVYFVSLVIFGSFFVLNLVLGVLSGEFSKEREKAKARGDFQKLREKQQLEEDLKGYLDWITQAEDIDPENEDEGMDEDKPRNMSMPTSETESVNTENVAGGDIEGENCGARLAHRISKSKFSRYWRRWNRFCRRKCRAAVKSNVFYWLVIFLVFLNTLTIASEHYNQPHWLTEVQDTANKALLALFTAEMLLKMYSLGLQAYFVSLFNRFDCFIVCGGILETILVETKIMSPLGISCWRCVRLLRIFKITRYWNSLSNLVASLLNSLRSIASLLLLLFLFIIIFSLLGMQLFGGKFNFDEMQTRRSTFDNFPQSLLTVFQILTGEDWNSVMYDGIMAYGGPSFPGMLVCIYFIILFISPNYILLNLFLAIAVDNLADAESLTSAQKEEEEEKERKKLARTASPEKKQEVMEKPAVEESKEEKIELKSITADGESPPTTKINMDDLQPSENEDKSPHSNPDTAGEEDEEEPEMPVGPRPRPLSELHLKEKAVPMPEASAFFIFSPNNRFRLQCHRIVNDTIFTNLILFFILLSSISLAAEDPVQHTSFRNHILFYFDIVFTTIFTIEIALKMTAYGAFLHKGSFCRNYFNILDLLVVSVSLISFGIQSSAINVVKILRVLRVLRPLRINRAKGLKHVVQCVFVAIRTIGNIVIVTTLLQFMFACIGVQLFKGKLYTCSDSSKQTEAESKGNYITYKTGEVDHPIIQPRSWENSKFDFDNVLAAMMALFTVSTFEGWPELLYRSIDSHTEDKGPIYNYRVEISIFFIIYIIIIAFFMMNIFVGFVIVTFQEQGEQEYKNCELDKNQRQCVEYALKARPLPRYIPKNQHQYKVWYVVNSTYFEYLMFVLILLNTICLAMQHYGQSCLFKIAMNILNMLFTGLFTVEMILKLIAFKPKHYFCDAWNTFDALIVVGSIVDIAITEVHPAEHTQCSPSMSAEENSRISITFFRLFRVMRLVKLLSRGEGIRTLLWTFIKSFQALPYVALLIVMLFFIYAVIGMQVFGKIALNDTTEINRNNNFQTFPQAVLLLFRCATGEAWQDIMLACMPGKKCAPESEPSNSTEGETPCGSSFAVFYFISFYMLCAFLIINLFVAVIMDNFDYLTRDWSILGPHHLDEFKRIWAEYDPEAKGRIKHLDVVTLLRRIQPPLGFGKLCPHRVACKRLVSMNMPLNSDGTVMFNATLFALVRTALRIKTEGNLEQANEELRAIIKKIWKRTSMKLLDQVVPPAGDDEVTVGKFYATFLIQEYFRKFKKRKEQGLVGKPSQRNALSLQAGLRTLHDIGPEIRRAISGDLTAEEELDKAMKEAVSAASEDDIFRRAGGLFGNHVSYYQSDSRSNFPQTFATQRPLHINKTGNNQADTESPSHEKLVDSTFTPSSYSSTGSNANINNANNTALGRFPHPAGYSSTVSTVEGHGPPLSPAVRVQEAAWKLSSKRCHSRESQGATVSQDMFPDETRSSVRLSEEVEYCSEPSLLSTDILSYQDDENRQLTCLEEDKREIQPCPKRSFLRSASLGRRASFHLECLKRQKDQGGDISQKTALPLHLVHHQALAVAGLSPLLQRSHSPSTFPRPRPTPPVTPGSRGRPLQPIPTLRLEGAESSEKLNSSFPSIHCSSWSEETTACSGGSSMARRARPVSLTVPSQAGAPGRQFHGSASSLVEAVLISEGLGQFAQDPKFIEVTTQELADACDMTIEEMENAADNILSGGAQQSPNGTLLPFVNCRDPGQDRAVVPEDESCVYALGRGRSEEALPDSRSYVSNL
T3 sequence (P54290 25-944 partner limits assumed, other chains not shown): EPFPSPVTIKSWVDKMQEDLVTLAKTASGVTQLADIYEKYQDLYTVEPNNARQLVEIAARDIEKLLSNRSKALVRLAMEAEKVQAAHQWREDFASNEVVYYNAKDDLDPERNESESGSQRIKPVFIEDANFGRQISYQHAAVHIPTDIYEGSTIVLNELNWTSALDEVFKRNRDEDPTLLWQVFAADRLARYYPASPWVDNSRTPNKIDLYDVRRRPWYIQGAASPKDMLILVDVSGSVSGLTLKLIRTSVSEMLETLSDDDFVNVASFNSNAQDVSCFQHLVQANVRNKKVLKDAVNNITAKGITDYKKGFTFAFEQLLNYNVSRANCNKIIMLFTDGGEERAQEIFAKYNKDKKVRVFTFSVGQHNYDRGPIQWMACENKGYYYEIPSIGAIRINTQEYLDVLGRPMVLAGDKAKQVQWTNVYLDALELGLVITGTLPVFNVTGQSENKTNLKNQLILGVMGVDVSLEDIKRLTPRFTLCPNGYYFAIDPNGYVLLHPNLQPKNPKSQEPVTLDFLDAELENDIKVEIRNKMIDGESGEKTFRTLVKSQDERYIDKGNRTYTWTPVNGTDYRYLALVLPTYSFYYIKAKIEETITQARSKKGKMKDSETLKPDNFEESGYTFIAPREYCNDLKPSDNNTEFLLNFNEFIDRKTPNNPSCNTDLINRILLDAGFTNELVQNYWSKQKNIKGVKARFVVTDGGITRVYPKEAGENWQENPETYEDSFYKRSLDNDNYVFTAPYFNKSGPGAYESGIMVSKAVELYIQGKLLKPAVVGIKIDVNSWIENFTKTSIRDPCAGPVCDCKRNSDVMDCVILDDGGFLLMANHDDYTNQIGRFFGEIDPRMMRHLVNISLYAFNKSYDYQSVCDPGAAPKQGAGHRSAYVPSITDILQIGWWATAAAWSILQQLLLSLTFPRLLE
T3 sequence (P54290 945-1091 partner limits assumed, other chains not shown): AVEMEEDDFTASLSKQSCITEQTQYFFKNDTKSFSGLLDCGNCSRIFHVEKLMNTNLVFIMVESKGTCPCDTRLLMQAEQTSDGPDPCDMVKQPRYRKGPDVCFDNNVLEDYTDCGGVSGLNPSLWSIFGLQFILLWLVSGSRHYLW

[4] = read-out: pKi alpha-1 1c (converted)
[5] = [3H]rauwolscine, LM(tk-) cell line L-α2C, SEM and n in lines below, read-out: pKi alpha-2 2c (converted)
[6] = [3H]nitrendipine, rat cardiac muscle membranes, SEM and n in lines below, read-out: pKi Ca (converted)

| Compound | Ki ([1]; pKi alpha-2 2c) [nM] | Ki [2, 4] [nM] | Ki ([3]; pKi Ca) [nM] | Ki [1, 5] [nM] | Ki ([2]; pKi alpha-1 1c) [nM] | Ki [3, 6] [nM] |
| --- | --- | --- | --- | --- | --- | --- |
| COC(=O)C1=C(C)NC(C)=C(C(=O)NCCCN2CCC(c3ccccc3)(c3ccccc3)CC2)C1c1ccc(Cl)cc1 (stereo not drawn) [Example 10, 4-(4-Chlorophenyl)-1,4-dihydro-5-methoxycarbonyl-2,6-Dimethyl-5-(N-(3-(4,4-diphenylpiperidin-1-yl)propyl)carboxamido)pyridine] | 1230 | 1.78 | 7590 |  |  |  |
| COC(=O)C1=C(C)NC(C)=C(C(=O)NCCCN2CCC(c3ccccc3)(c3ccccc3)CC2)C1c1ccc2c(c1)OCO2 (stereo not drawn) [Example 11, 1,4-Dihydro-3-methoxycarbonyl-2,6-dimethyl-4-(3,4-methylenedioxyphenyl)-5-(N-(3-(4,4-diphenylpiperidin-1-yl)propyl)carboxamido)pyridine] | 575 | 1.12 | 2290 |  |  |  |
| COC(=O)C1=C(C)NC(C)=C(C(=O)NCCCN2CCC(c3ccccc3)(c3ccccc3)CC2)C1c1ccc(C#N)cc1 (stereo not drawn) [Example 12, 4-(4-Cyanophenyl)-1,4-dihydro-3-methoxycarbonyl-2,6-dimethyl-5-(N-(3-(4,4-diphenylpiperidin-1-yl)propyl)carboxamido)pyridine] | 871 | 1.82 | 3800 |  |  |  |
| COC(=O)C1=C(C)NC(C)=C(C(=O)NCCCN2CCC(c3ccccc3)(c3ccccc3)CC2)C1c1ccc(I)cc1 (stereo not drawn) [Example 13, 1,4-Dihydro-4-(4-iodophenyl)-3-methoxycarbonyl-2,6-dimethyl-5-(N-(3-(4,4-diphenylpiperidin-1-yl)propyl)carboxamido)pyridine] | 646 | 7.24 | 8910 |  |  |  |
| COC(=O)C1=C(C)NC(C)=C(C(=O)NCCCN2CCC(c3ccccc3)(c3ccccc3)CC2)C1c1ccc(Br)cc1 (stereo not drawn) [Example 15, 4-(4-Bromophenyl)-1,4-dihydro-3-methoxycarbonyl-2,6-dimethyl-5-(N-(3-(4,4-diphenylpiperidin-1-yl)propyl)carboxamido)pyridine] | 1120 | 6.31 | 7240 |  |  |  |
| COC(=O)C1=C(C)NC(C)=C(C(=O)NCCCN2CCC(c3ccccc3)(c3ccccc3)CC2)C1c1ccc(Cl)c([N+](=O)[O-])c1 (stereo not drawn) [Example 16, 4-(4-Chloro-3-nitrophenyl)-1,4-dihydro-3-methoxycarbonyl-2,6-dimethyl-5-(N-(3-(4,4-diphenylpiperidin-1-yl)propyl)carboxamido)pyridine] | 380 | 5.89 | 813 |  |  |  |
| COC(=O)C1=C(C)NC(C)=C(C(=O)NCCCN2CCC(c3ccccc3)(c3ccccc3)CC2)C1c1ccc(C(C)C)cc1 (stereo not drawn) [Example 18, 1,4-Dihydro-4-(4-isopropylphenyl)-3-methoxycarbonyl-2,6-dimethyl-5-(N-(3-(4,4-diphenylpiperidin-1-yl)propyl)carboxamido)pyridine] | 933 | 69.2 | 162 |  |  |  |
| COC(=O)C1=C(C)NC(C)=C(C(=O)NCCCN2CCC(c3ccccc3)(c3ccccc3)CC2)C1c1ccc(C)cc1 (stereo not drawn) [Example 19, 1,4-Dihydro-3-methoxycarbonyl-1,6-dimethyl-4-(4-methylphenyl)-5-(N-(3-(4,4-diphenylpiperidin-1-yl)propyl)carboxamido)pyridine] | 417 | 1.35 | 7410 |  |  |  |
| COC(=O)C1=C(C)NC(C)=C(C(=O)NCCCN2CCC(c3ccccc3)(c3ccccc3)CC2)C1c1ccc(F)cc1 (stereo not drawn) [Example 20, 4-(4-Fluorophenyl)-1,4-dihydro-3-methoxycarbonyl-2,6-dimethyl-5-(N-(3-(4,4-diphenylpiperidin-1-yl)propyl)carboxamido)pyridine] | 813 | 3.8 | 1150 |  |  |  |
| COC(=O)C1=C(C)NC(C)=C(C(=O)NCCCN2CCC(c3ccccc3)(c3ccccc3)CC2)C1c1ccc(OC)cc1 (stereo not drawn) [Example 21, 1,4-Dihydro-3-methoxycarbonyl-4-(4-Methoxyphenyl)-2,6-dimethyl-5-(N-(3-(4,4-diphenylpiperidin-1-yl)propyl)carboxamido)pyridine] | 776 | 7.08 | 1000 |  |  |  |
| COC(=O)C1=C(C)NC(C)=C(C(=O)NCCCN2CCC(c3ccccc3)(c3ccccc3)CC2)C1c1ccc2ccccc2c1 (stereo not drawn) [Example 22] | 631 | 36.3 | 372 |  |  |  |
| COC(=O)C1=C(C)NC(C)=C(C(=O)NCCCN2CCC(c3ccccc3)(c3ccccc3)CC2)C1c1ccoc1 (stereo not drawn) [Example 23, 4-(3-Furyl)-1,4-dihydro-3-methoxycarbonyl-2,6-dimethyl-5-(N-(3-(4,4-diphenylpiperidin-1-yl)propyl)carboxamide)pyridine] |  |  |  | 468 | 14.5 | 288 |
| COC(=O)C1=C(C)NC(C)=C(C(=O)NCCCN2CCC(c3ccccc3)(c3ccccc3)CC2)C1c1ccc(Cl)c(Cl)c1 (stereo not drawn) [Example 24, 4-(3,4-Dichlorophenyl)-1,4-dihydro-3-methoxycarbonyl-2,6-dimethyl-5-(3-(D 44-diphenylpiperidin-1-yl)propylcarboxamido)pyridine] | 158 | 1.86 | 1950 |  |  |  |
| COC(=O)C1=C(C)NC(C)=C(C(=O)NCCCN2CCC(c3ccccc3)(c3ccccc3)CC2)C1c1ccc(C(=O)OC)cc1 (stereo not drawn) [Example 25, 1,4-Dihydro-3-methoxycarbonyl-4-(4-methoxycarbonylphenyl)-2,6-dimethyl-5-(N-(3-(4,4-diphenylpiperidin-1-yl)propyl)carboxamide)pyridine] | 1020 | 33.9 | 1150 |  |  |  |
| COC(=O)C1=C(C)NC(C)=C(C(=O)NCCCN2CCC(c3ccccc3)(c3ccccc3)CC2)C1c1ccc(OC)c(OC)c1 (stereo not drawn) [Example 26] | 1480 | 7.08 | 87.1 |  |  |  |
| COC(=O)C1=C(C)NC(C)=C(C(=O)NCCCN2CCC(c3ccccc3)(c3ccccc3)CC2)C1c1cc(OC)c(OC)c(OC)c1 (stereo not drawn) [Example 27] | 1200 | 3.63 | 589 |  |  |  |
| COC(=O)C1=C(C)NC(C)=C(C(=O)NCCCN2CCC(c3ccccc3)(c3ccccc3)CC2)C1c1ccc([N+](=O)[O-])c(C)c1 (stereo not drawn) [Example 28] |  | 9.55 |  | 631 |  | 17400 |
| COC(=O)C1=C(C)NC(C)=C(C(=O)NCCCN2CCC(c3ccccc3)(c3ccccc3)CC2)C1c1ccc([N+](=O)[O-])c(OC)c1 (stereo not drawn) [Example 29, 1,4-Dihydro-3-methoxycarbonyl-4-(3-methoxy-4-nitrophenyl)-2,6-dimethyl-5-(N-(3-(4,4-diphenylpiperidin-1-yl)propyl)carboxamido)pyridine] |  | 1.48 |  | 398 |  | 13800 |
| CC1=C(C#N)C(c2ccc([N+](=O)[O-])cc2)C(C(=O)NCCCN2CCC(c3ccccc3)(c3ccccc3)CC2)=C(C)N1 (stereo not drawn) [Example 37] | 575 | 22.9 | 1350 |  |  |  |
| CC1=C(C(=O)NCCCN2CCC(c3ccccc3)(c3ccccc3)CC2)C(c2ccc([N+](=O)[O-])cc2)C2=C(CCCC2=O)N1 (stereo not drawn) [Example 40, 1,4,5,6,7,8-Hexahydro-2-methyl-4-(4-nitrophenyl)-5-oxo-3-{N-[3-(4,4-diphenylpiperidin-1-yl)propyl]}carboxamidoquinoline] |  |  |  | 977 | 13.8 | 15800 |
| COC(=O)C1=C(C)NC(c2ccoc2)=C(C(=O)NCCCN2CCC(c3ccccc3)(c3ccccc3)CC2)C1c1ccc([N+](=O)[O-])cc1 (stereo not drawn) [Example 43, 2-(Furan-3-yl)-, 4-dihydro-5-methoxycarbonyl-6-methyl-4-(4-nitrophenyl)-3-(N-(3-(4,4-diphenylpiperidin-1-yl)propyl)carboxamidopyridine, hydrochloride salt] |  |  |  | 398 | 2.4 | 18600 |
| COC(=O)C1=C(C)NC(C)=C(C(=O)N(C)CCCN2CCC(c3ccccc3)(c3ccccc3)CC2)C1c1ccc([N+](=O)[O-])cc1 (stereo not drawn) [Example 46, hydrochloride hemihydrate] | 245 | 20.4 | 7410 |  |  |  |
